The record followed here is ChEMBL document CHEMBL3217743, “Reduction of acyl glucuronidation in a series of acidic 11-hydroxysteroid dehydrogenase type 1 (11-HSD1) inhibitors: the discovery of AZD6925” (Medchemcomm, 2012).

SMILES strings stand for the structures.

As usually defined, the IC50 is the point on the concentration scale where inhibition reaches its midpoint. What is called bioavailability is dose-corrected exposure relative to a reference, in per cent. Broadly, the fraction unbound is free concentration divided by total concentration. Broadly, the logD is the decadic logarithm of the distribution of all forms, ionised or not, between an organic phase and buffer at a given pH. By clearance is commonly meant a measure of how efficiently the substance is removed, as volume per time. What is called Papp A→B is the apparent permeability from the apical to the basolateral side of a cell layer.

Data set [1] in a line: Inhibition of N-terminal 6-His-tagged cynomolgus monkey full length 11beta-HSD1 assessed as conversion of cortisone to cortisol after 25 mins by HTRF assay. Also noted: species or system Macaca fascicularis. On the technique in general: In TR-FRET formats the signal depends on donor and acceptor labels being close together.
Data set [2] in a line: Inhibition of N-terminal 6-His-tagged dog full length 11beta-HSD1 assessed as conversion of cortisone to cortisol after 25 mins by HTRF assay. Also noted: species or system Canis lupus familiaris.
The nature of data set [3]: Drug excretion in bile duct cannulated rat bile assessed as ratio of glucuronidated to oxidized compound level by HPLC analysis. Particulars: in vivo. The data set is classed as ADME, tissue-based.
Data set [4] in a line: Drug metabolism in dog hepatocytes assessed as ratio of glucuronidated to oxidized compound level by LC-MS/MS analysis. The format is ADME, cell-based, Canis lupus familiaris, Hepatocyte.
The nature of data set [5]: Drug excretion in bile duct cannulated rat urine assessed as compound remaining by HPLC analysis. The data set is classed as ADME, tissue-based. The note with it: read-out: Stability.
The nature of data set [6]: Drug excretion in bile duct cannulated rat urine assessed as ratio of glucuronidated to oxidized compound level by HPLC analysis. The data set is classed as ADME. Particulars: in vivo.
The nature of the next data set: in vivo. The note with it: rat.
Data set [7] can be described thus: Fraction unbound in rat plasma by equilibrium dialysis technique. The format is ADME, cell-free. In general terms: Equilibrium dialysis compares concentrations on both sides of a semipermeable membrane.
The nature of data set [8]: Clearance in rat hepatocytes measured per 10^6 cells. The data set is classed as ADME, cell-based, Hepatocyte. Particulars: read-out: CLH.
Data set [9] is described as follows: Drug metabolism in human hepatocytes assessed as ratio of glucuronidated to oxidized compound level by LC-MS/MS analysis. The data set is classed as ADME, cell-based, Hepatocyte.
Data set [10] can be described thus: Drug metabolism in rat hepatocytes assessed as ratio of glucuronidated to oxidized compound level by LC-MS/MS analysis. The format is ADME, cell-based, Hepatocyte.
Data set [11] can be described thus: Octanol-buffer partition coefficient, log D of the compound at pH 7.4 after 30 mins by shake-flask method. The data set is classed as physicochemical.
Data set [12] in a line: Clearance in rat. The data set is classed as ADME, organism-based. Particulars: in vivo.
Data set [13] is described as follows: Apparent permeability from apical to basolateral side in human Caco2 cells. The data set is classed as ADME, cell-based. The note with it: Caco-2.

Consider `CCCSc1nc(N2CCC[C@@H](CC(=O)O)C2)ccc1C(=O)NC1CCCCC1` [AZD-4017], for which the IC50 in data set [1] was 29 nM; in data set [2], 3770 nM. In addition, the Ratio in data set [3] was found to be 7.5; in data set [4], 4.1; in [6] it was 2.4; in data set [9] it was 6; in data set [10], 2.1. Besides, the dose excreted in data set [5] amounted to 4%. The same compound registered a bioavailability in the data set “in vivo” of 66%. Further, the fraction unbound in data set [7] was 0.018. Further, the hepatocyte CLint in data set [8] is less than 2 µL/min/1e6 cells.
In turn, `CCCSc1nc(N2CCCC(C3(C(=O)O)CC3)C2)ccc1C(=O)NC1CCCCC1` (configuration not stated) yielded a bioavailability in the data set “in vivo” of 71%. The same compound yielded a fraction unbound in [7] of 0.002. Moreover, the logD at 0.5 h in [11] was 3.5. Also, the hepatocyte CLint in data set [8] is 15 µL/min/1e6 cells. The clearance in data set [12] worked out at 8 mL/min/kg.
Turning to `O=C(N[C@H]1C2CC3CC1C[C@](OC(F)F)(C3)C2)c1ccc(N2C[C@@H]3[C@H](C2)[C@H]3C(=O)O)nc1SC1CCCC1`, the bioavailability in the data set “in vivo” was 94%. Also, the fraction unbound in [7] worked out at 0.005. In data set [11], the logD at 0.5 h amounted to 3.4. In addition, the hepatocyte CLint in [8] is 7 µL/min/1e6 cells. The compound also yielded a clearance in data set [12] of 9 mL/min/kg.
`CCCSc1nc(N2C[C@@H]3[C@H](C2)[C@H]3C(=O)O)ccc1C(=O)N[C@H]1C2CC3CC1C[C@](O)(C3)C2` registered a bioavailability in the data set “in vivo” of 48%. The same compound yielded a fraction unbound in data set [7] of 0.108. The same compound yielded a logD at 0.5 h in data set [11] of 0.8. Moreover, the hepatocyte CLint in [8] was less than 2 µL/min/1e6 cells. Besides, the clearance in data set [12] came out at 42 mL/min/kg.
Regarding `CCCSc1nc(N2CCC[C@@H](Cc3nnn[nH]3)C2)ccc1C(=O)NC1CCCCC1`, the bioavailability in “in vivo” was 21%. Also, in data set [7], the fraction unbound turned out to be 0.006. This compound registered a log distribution coefficient (logD) at 0.5 h in data set [11] of 2.4. In addition, the hepatocyte CLint in data set [8] came to 9 µL/min/1e6 cells. This compound displayed a clearance in data set [12] of 31 mL/min/kg.
The compound `CCCSc1nc(N2C[C@@H]3[C@H](C2)[C@H]3C(=O)O)ccc1C(=O)NC1CCCCC1` gave a bioavailability in “in vivo” of 80%. The fraction unbound in data set [7] came to 0.025. Moreover, the logD at 0.5 h in data set [11] was determined as 1.8. In addition, the hepatocyte CLint in [8] is less than 2 µL/min/1e6 cells. In addition, the clearance in data set [12] turned out to be 2 mL/min/kg.
For `CCCSc1nc(N2CCC[C@@H](CC(=O)NS(C)(=O)=O)C2)ccc1C(=O)NC1CCCCC1`, in that order: 5%, 0.017, 1.6, 38 µL/min/1e6 cells and 35 mL/min/kg.
For the compound `O=C(O)[C@H]1[C@@H]2CN(c3ccc(C(=O)N4CCC(c5cccnc5)C4)c(SC4CCCC4)n3)C[C@@H]21` (some centres not stated), the bioavailability in “in vivo” was 3%. Also, the fraction unbound in data set [7] was found to be 0.034. The logD at 0.5 h in [11] was determined as 1.2. Also, the hepatocyte CLint in data set [8] was determined as 20 µL/min/1e6 cells. Further, in [13], the Papp A→B was found to be 2 ×10⁻⁶ cm/s. The same compound returned a clearance in [12] of 18 mL/min/kg.
For the compound `O=C(N[C@H]1C2CC3CC1C[C@](O)(C3)C2)c1ccc(N2C[C@@H]3[C@H](C2)[C@H]3C(=O)O)nc1SC1CCCC1`, the bioavailability in the data set “in vivo” came out at 57%. In data set [7], this compound had a fraction unbound of 0.04. Besides, the logD at 0.5 h in data set [11] came out at 1.5. The hepatocyte CLint in data set [8] was 4 µL/min/1e6 cells. This compound also showed a clearance in data set [12] of 43 mL/min/kg.
In “in vivo”, `CCCSc1nc(N2CC[C@H](CC(=O)O)C2)ccc1C(=O)NC1CCCCC1` gave a bioavailability of 96%. The compound also came in with a fraction unbound in [7] of 0.01. This compound came in with a logD at 0.5 h in data set [11] of 1.7. Also, the hepatocyte CLint in data set [8] was less than 2 µL/min/1e6 cells. In [12], this compound returned a clearance of 2 mL/min/kg.
The like results for `CCCSc1nc(N2CCCC(C(C)(C)C(=O)O)C2)ccc1C(=O)NC1CCCCC1` (configuration not stated) were, in that order, 84%, 0.004, 3.3, 22 µL/min/1e6 cells and 9 mL/min/kg.
Take `CCCSc1nc(N2CCC(C(=O)O)C2)ccc1C(=O)NC1CCCCC1` (configuration not stated): in “in vivo”, the bioavailability was 52%. Moreover, the fraction unbound in data set [7] is 0.012. Also, in [11], the logD at 0.5 h turned out to be 1.1. For the same compound, the hepatocyte CLint in [8] was determined as 3 µL/min/1e6 cells. Further, in [12], the clearance came to 3 mL/min/kg.
